Data taken from patent publication US20130109721A1, “FAAH Inhibitors” (Ironwood Pharmaceuticals, Inc., priority 2009, published 2013).

These compounds were tested against T1, FAAH (Rattus norvegicus, UniProt P97612) (assay: FAAH inhibition, rat brain membrane homogenate assay). Details: average; FAAH extracted from rat brain homogenate; read-out: Rat Brian Extract IC50.
T1 construct: For assay of FAAH activity in rat brain membrane (RBM) homogenates; tissue Charles River; host or cells: rat (CD strain) brain membrane homogenate
T1 sequence (P97612 1-579): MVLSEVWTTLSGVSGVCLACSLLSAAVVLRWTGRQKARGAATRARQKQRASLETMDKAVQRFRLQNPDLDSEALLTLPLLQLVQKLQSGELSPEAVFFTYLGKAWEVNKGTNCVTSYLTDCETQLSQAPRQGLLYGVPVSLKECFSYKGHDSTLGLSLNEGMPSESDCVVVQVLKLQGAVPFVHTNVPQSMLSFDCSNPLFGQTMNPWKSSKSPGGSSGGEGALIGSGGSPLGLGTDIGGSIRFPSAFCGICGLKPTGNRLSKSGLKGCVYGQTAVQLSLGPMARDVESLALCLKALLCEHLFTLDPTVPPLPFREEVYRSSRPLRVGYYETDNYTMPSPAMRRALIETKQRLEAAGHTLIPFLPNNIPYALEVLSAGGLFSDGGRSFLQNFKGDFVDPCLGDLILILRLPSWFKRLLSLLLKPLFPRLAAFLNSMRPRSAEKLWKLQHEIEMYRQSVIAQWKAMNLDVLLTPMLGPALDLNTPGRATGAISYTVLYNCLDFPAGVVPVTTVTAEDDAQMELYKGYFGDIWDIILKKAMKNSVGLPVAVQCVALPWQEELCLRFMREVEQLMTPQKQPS
Type: biochemical
Method: Adult rats (Charles River CD strain, female, 200 g) were anaesthetized with isofluorane and rapidly decapitated. Each brain was quickly removed and chilled in tubes (3 brains per tube) on ice. About 25 mL of “homogenization buffer” (20 mM HEPES buffer, pH 7.0, with 1 mM MgCl2) was added to 15 to 20 g of brain. The brains were homogenized on ice for 1 minute using an Omni GLH homogenizer (Omni International, Marietta, Ga.). The homogenates were then transferred to three centrifuge tubes and centrifuged at 36,500 g for 20 minutes at 4° C. The supernatant was discarded and each pellet was re-suspended in 25 mL homogenization buffer. The re-suspended material was again centrifuged (36,500 g, 20 minutes at 4° C.). Pellets were combined by resuspension in 10 mL of homogenization buffer and incubated in a 37° C. water bath for 15 minutes. The tubes were then placed on ice for 5 minutes followed by centrifugation at 36,500 g for 20 minutes at 4° C. The supernatant was discarded and the membrane pellets were then re-suspended in 40 mL of “resuspension buffer” (50 mM Tris-HCl buffer, pH 7.4, containing 1 mM EDTA and 3 mM MgCl2). A Bradford Protein assay was performed to determine protein concentration. The protein was aliquotted into screw cap Cryo tubes each containing ˜400 μL, flash frozen in liquid nitrogen and stored at −80° C. until used for the assay. A similar protocol was used to obtain brain membrane homogenates from mice.
FAAH activity was assayed in the respective homogenates described herein (Rat brain, Mouse brain or Human brain) for certain exemplary substrate compounds using a modification of the method of Omeir et al. (1995 Life Sci 56:1999) and Fowler et al. (1997 J. Pharmacol Exp Ther 283:729). For assay of FAAH activity in rat brain membrane (RBM) homogenates, RBM homogenates (7 μg protein in 20 μL final volume of 10 mM Tris pH 6.5) were mixed with 180 μL of a mixture of the following: 2.0 μM unlabelled anandamide, 0.03 μCi radio labeled anandamide [ethanolamine 1-^3H] (40-60 Cis/mmol, product number ART-626, American Radiolabeled Chemicals, St. Louis, Mo.), 1 mg/mL Bovine Serum Albumin (fatty acid-free BSA, electrophoresis grade, Sigma, St. Louis, Mo.), 10 mM Tris-HCl (pH 6.5), and 1 mM EDTA in the presence and absence of test compounds (vehicle was DMSO at a final concentration of 1%) and incubated for 10 minutes at 37° C. Samples were placed on ice to terminate the reactions.
^3H-ethanolamine product and un-reacted ^3H-anandamide substrate were then separated either: (1) by using chloroform/methanol extraction or (2) by passing the reaction mixture through a glass fiber filter containing activated charcoal. Samples were extracted with chloroform/methanol by adding 0.4 mL of chloroform/methanol (1:1 v/v), vigorously mixing the samples, and separating the aqueous and organic phases by centrifugation. Radioactivity (corresponding to FAAH-catalyzed breakdown of ^3H-anandamide) found in aliquots (0.2 mL) of the aqueous phase was determined by liquid scintillation counting with quench correction. IC50 values were determined as described by Jonsson et al. (2001 Br. J. Pharmacol. 133:1263). Alternatively, reactions were purified using a modification of the solid-phase extraction method described by Wilson et al (2003 Anal. Biochem. 318:270). This method was modified as follows: after reactions were incubated at 37° C. for 10 minutes and chilled on ice, the reaction mixtures were acidified by adding 10 μL of sodium phosphate solution [0.5M (pH 2.0)]. Next, 90 μL aliquots of the acidified reaction mixtures were applied to activated charcoal (that had been previously washed with methanol as described by Wilson et al. (supra)) containing 80 μL of water on top of a glass fiber filter, centrifuged, and the radioactivity in the eluate was counted as described previously by Wilson et al. (supra). […]

Row | SMILES | IC50 [nM]
1 | COc1cc(NC(=O)C(=O)c2c3c(n(Cc4ccc(Cl)cc4)c2C)CCCC3)ccn1 [Compound I-18, 2-(1-(4-chlorobenzyl)-2-methyl-4,5,6,7-tetrahydro-1H-indol-3-yl)-N-(2-methoxypyridin-4-yl)-2-oxoacetamide] | 1440
2 | Cc1c(C(=O)C(=O)Nc2cccc(Cl)c2)c(-c2ccccc2)c(C)n1Cc1ccc(Cl)cc1 [Compound I-20, 2-(1-(4-chlorobenzyl)-2,5-dimethyl-4-phenyl-1H-pyrrol-3-yl)-N-(3-chlorophenyl)-2-oxoacetamide] | 1040
3 | COc1ccc(Cn2c(C)cc(C(=O)C(=O)Nc3ccnc(OC)c3)c2C)cc1 [Compound I-22, 2-(1-(4-methoxybenzyl)-2,5-dimethyl-1H-pyrrol-3-yl)-N-(2-methoxypyridin-4-yl)-2-oxoacetamide] | 1770
4 | COc1cc(NC(=O)C(=O)c2cc(C)n(Cc3ccc(Cl)cc3)c2-c2ccccc2)ccn1 [Compound I-23, 2-(1-(4-chlorobenzyl)-5-methyl-2-phenyl-1H-pyrrol-3-yl)-N-(2-methoxypyridin-4-yl)-2-oxoacetamide] | 185
5 | Cc1cc(C(=O)C(=O)Nc2cccc(Cl)c2)c(-c2ccccc2)n1Cc1ccc(Cl)cc1 [Compound I-24, 2-(1-(4-chlorobenzyl)-5-methyl-2-phenyl-1H-pyrrol-3-yl)-N-(3-chlorophenyl)-2-oxoacetamide] | > 5000
6 | Cc1c(C(=O)C(=O)Nc2ccncc2)cc(-c2ccccc2)n1Cc1ccc(Cl)cc1 [Compound I-26, 2-(1-(4-chlorobenzyl)-2-methyl-5-phenyl-1H-pyrrol-3-yl)-2-oxo-N-(pyridin-4-yl)acetamide] | > 5000

Stronger by IC50, values ahead:

Row | IC50 [nM] | SMILES
7 | 4 | Cc1c(C(=O)C(=O)Nc2cccc(Cl)c2)c2c(n1Cc1ccc(Cl)cc1)CCCC2 [Compound I-16, 2-(1-(4-chlorobenzyl)-2-methyl-4,5,6,7-tetrahydro-1H-indol-3-yl)-N-(3-chlorophenyl)-2-oxoacetamide]
8 | 5 | COc1cc(NC(=O)C(=O)c2c(-c3ccccc3)c(C)n(Cc3ccc(Cl)cc3)c2C)ccn1 [Compound I-19, 2-(1-(4-chlorobenzyl)-2,5-dimethyl-4-phenyl-1H-pyrrol-3-yl)-N-(2-methoxypyridin-4-yl)-2-oxoacetamide]
9 | 1 | COc1cc(NC(=O)C(=O)c2cc(C)n(Cc3ccc(Cl)cc3Cl)c2C)ccn1 [Compound I-21, 2-(1-(2,4-dichlorobenzyl)-2,5-dimethyl-1H-pyrrol-3-yl)-N-(2-methoxypyridin-4-yl)-2-oxoacetamide]
10 | 28 | Cc1c(C(=O)C(=O)Nc2cccc(Cl)c2)cc(-c2ccccc2)n1Cc1ccc(Cl)cc1 [Compound I-25, 2-(1-(4-chlorobenzyl)-2-methyl-5-phenyl-1H-pyrrol-3-yl)-N-(3-chlorophenyl)-2-oxoacetamide]
